Experimental data taken from patent US12492188B2, “1H-benzo[D]imidazole derivatives as TLR9 inhibitors for the treatment of fibrosis” (BRISTOL-MYERS SQUIBB COMPANY, priority 2020, dated 2025).
Like-named read-outs stand apart in the source and are kept apart here.

What was measured:
Format in all cases: cell-based
human TLR9 = molecular target: T1, human TLR9 (Homo sapiens, UniProt Q9NR96); assay: TLR9 inhibition reporter assay (HEK-Blue cells, secreted embryonic alkaline phosphatase reporter)
T1 construct: host or cells: HEK-Blue cells (HEK293-derived reporter line)
T1 sequence (Q9NR96 26-1032): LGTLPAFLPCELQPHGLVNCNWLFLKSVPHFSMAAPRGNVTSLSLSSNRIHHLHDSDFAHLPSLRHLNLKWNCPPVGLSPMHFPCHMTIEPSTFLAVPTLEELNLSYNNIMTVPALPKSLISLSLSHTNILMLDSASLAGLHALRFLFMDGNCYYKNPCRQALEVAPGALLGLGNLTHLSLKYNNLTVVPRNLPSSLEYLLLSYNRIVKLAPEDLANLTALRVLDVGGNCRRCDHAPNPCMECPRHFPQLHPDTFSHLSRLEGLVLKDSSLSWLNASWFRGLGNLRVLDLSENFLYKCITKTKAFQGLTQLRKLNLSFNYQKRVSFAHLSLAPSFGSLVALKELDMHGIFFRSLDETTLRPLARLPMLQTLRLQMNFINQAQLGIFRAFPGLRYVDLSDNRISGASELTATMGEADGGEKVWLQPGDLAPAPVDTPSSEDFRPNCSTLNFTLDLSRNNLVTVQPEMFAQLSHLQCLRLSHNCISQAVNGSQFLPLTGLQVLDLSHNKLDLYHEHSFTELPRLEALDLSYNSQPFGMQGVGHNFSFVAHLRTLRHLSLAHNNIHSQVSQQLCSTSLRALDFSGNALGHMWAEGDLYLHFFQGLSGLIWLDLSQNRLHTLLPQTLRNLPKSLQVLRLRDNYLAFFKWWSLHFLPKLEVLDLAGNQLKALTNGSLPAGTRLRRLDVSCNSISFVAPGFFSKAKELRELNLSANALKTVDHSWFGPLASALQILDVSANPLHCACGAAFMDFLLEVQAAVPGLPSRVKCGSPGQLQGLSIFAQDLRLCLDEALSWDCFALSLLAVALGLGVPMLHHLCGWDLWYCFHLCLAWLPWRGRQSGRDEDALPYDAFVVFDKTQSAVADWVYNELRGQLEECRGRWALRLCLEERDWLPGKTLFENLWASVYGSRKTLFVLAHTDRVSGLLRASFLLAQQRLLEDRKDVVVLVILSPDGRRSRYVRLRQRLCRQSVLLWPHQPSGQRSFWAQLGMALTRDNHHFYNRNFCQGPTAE
Procedure, shortened: (§1)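 Inhibitors are tested in dose response (0.05 nM–50 μM) on HEK-Blue reporter cells expressing human TLR7, TLR8 or TLR9. After 30 min at room temperature, each line is stimulated with its own agonist (gardiquimod 7.5 μM, R848 15.9 μM or ODN2006 5 nM, final) and SEAP is measured 22 h later.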

human TLR7 = molecular target: T2, human TLR7 (Homo sapiens, UniProt Q9NYK1); assay: TLR7 inhibition reporter assay (HEK-Blue cells, secreted embryonic alkaline phosphatase reporter); details: HEK-Blue cells overexpressing human TLR7, stimulated with gardiquimod 7.5 μM; read-out: TLR 7 IC50
T2 construct: host or cells: HEK-Blue cells (HEK293-derived reporter line)
T2 sequence (Q9NYK1 27-1049): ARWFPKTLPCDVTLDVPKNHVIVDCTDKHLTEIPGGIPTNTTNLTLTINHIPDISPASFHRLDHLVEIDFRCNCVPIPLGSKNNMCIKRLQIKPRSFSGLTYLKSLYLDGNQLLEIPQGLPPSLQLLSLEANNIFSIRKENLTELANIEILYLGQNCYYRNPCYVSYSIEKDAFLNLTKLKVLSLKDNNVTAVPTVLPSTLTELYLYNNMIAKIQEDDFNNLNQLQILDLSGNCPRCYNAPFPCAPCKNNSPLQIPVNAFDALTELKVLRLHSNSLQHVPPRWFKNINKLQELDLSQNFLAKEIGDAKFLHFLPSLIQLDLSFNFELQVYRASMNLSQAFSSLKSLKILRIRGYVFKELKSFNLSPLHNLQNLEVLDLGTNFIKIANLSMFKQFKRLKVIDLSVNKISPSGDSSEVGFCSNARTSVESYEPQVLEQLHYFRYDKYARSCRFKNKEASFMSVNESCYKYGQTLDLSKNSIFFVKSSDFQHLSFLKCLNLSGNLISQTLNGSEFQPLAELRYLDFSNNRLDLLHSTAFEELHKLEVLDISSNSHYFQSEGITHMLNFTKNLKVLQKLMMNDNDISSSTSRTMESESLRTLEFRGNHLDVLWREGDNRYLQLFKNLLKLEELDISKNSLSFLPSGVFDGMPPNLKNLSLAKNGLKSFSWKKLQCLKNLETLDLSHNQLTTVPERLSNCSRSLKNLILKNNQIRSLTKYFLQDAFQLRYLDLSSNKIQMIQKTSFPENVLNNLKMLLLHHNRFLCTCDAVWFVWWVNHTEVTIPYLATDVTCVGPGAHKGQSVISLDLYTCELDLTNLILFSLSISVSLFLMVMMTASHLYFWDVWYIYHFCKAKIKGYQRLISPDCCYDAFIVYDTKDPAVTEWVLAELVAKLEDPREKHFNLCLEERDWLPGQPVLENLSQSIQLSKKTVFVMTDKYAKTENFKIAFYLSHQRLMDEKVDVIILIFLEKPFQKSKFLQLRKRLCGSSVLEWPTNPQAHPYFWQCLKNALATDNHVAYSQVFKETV
Procedure, shortened: as §1

human TLR8 = molecular target: T3, human TLR8 (Homo sapiens, UniProt Q9NR97); assay: TLR8 inhibition reporter assay (HEK-Blue cells, secreted embryonic alkaline phosphatase reporter); details: HEK-Blue cells overexpressing human TLR8, stimulated with R848 15.9 μM; read-out: TLR 8 IC50
T3 construct: host or cells: HEK-Blue cells (HEK293-derived reporter line)
T3 sequence (Q9NR97 27-1041): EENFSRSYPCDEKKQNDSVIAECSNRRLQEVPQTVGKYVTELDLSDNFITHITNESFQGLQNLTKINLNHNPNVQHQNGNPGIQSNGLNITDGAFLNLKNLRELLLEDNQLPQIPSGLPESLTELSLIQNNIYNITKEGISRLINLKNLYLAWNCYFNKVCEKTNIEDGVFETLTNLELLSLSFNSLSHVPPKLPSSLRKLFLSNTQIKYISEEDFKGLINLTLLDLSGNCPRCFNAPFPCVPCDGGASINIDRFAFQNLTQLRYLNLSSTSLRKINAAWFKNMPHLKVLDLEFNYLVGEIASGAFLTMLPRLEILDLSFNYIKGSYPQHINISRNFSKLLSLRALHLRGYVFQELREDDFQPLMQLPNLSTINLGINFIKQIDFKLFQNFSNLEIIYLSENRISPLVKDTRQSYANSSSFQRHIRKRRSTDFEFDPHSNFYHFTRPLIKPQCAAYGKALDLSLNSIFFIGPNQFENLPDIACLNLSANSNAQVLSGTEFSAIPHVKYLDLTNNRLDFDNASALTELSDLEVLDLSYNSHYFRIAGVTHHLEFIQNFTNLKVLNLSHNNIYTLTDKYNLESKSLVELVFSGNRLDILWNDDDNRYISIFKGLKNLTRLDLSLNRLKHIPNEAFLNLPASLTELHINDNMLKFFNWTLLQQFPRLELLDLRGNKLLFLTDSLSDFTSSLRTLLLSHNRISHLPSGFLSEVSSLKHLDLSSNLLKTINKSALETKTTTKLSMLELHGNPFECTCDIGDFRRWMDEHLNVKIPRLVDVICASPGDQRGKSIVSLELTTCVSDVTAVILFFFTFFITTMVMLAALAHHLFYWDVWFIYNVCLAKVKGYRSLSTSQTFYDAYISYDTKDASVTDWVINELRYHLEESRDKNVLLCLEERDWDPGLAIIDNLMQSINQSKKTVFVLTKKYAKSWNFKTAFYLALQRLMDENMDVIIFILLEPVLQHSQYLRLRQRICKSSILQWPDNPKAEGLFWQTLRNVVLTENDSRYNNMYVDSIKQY
Procedure, shortened: as §1

[1] = HEK-Blue cells overexpressing human TLR9, stimulated with ODN2006 5 nM, read-out: TLR 9 IC50
[2] = HEK-Blue cells overexpressing human TLR9, stimulated with ODN2006 5 nM, 22 hour incubation, reporter readout

IC50 (human TLR9) [nM] | IC50 (human TLR9; [1]) [nM] | IC50 (human TLR7) [µM] | IC50 (human TLR8) [µM] | IC50 (human TLR9; [2]) [nM] | Compound
160 | 158 | 14.2 | > 50 |  | Cn1c(-c2ccc(S(C)(=O)=O)cc2)nc2cc(C3CCN(C4CCN(CC5CC5)CC4)CC3)c(F)cc21 [Example 242, 5-(1′-(cyclopropylmethyl)-[1,4′-bipiperidin]-4-yl)-6-fluoro-1-methyl-2-(4-(methylsulfonyl)phenyl)-1H-benzo[d]imidazole]
 | 1880 | > 50 | 5.4 | 1900 | Cc1cc(-c2ccc(CN3CCN(C(C)C)CC3)cc2)cc2c1nc(-c1ccc(S(C)(=O)=O)cc1)n2C [Example 413, 6-(4-((4-isopropylpiperazin-1-yl)methyl)phenyl)-1,4-dimethyl-2-(4-(methylsulfonyl)phenyl)-1H-benzo[d]imidazole]
 |  | 1.8 | 4.5 | 56 | Cc1cc(-c2ccc(CN3CC4(CN(C)C4)C3)cc2)cc2c1nc(-c1ccc(S(C)(=O)=O)cc1)n2C [Example 370, 1,4-dimethyl-6-(4-((6-methyl-2,6-diazaspiro[3.3]heptan-2-yl)methyl)phenyl)-2-(4-(methylsulfonyl)phenyl)-1H-benzo[d]imidazole]
